Results: patent publication US10793840B2, “Identifying ligands for bacterial sensors” (William Marsh Rice University, priority 2015, dated 2020)

How the values were obtained:
[1] = test system: BAD_0569/BAD_0568-CcaR TCS; conditions: E. coli expressing BAD_0569 and BAD_0568-CcaR, sfGFP from PcpcG2; panel of over 40 gut chemicals
Source text: Briefly, the wild type BAD_0569 SK of Bifidobacterium adolescent was expressed in E. coli. A modified cognate response regulator BAD_0568 was simultaneously expressed in E. coli, wherein the native DBD from the Bifidobacterium adolescentis RR was replaced with that of the DBD from the well-characterized OmpR-PhoB family RR CcaR. When phosphorylated, native CcaR activates transcription from PcpcG2, or its derivatives. A superfolder GFP reporter gene (a.k.a. GFP) was expressed from PcpcG2 in the same E. coli. Anydrotetracyline (aTc) induces expression of the BAD_0568-CcaR hybrid, which activates PcpcG2 transcription and thus GFP expression.
We then tested E. coli expressing the hybrid BAD_0569/8 TCS (i.e. BAD_0569 and BAD_0568-CcaR with sfGFP expressed from PcpcG2) in the presence of over 40 chemicals previously found to be enriched in the large intestines of germ-free mice made to carry gut bacteria of obese humans, but not found to be enriched in those mice carrying the gut bacteria of their lean twins.

NarL / PdcuS promoter = conditions: PdcuS promoter repressed by phosphorylated NarL, sfGFP; cited from earlier work

| Compound | response of rewired BAD_0569/8 TCS (sfGFP reporter) to the chemical [1] | sensitivity of the sensor (NarL / PdcuS promoter) |
| --- | --- | --- |
| CSCC[C@H](N)C(=O)O [methionine] | largest response |  |
| O=[N+]([O-])O [nitrate] |  | The sensitivity of the sensor is in the sub-mM to mM range for nitrate. |
